Values belong to the molecule of their own block, whether it stands above or below them.
How the values were obtained:
contact activation = assay: Thrombin generation (CAT) in platelet poor plasma contact activated with kaolin; format: biochemical, human; conditions: for 4 × lag-time (ng/ml) / 4 × lag-time (μM): concentration that prolongs clotting time of kaolin contact activated plasma four times
Description: Thrombin generation was carried out according to WO2003/093831.
Following a double centrifugation at 2500×g for 15 min at room temperature, platelet poor plasma (PPP) was collected from the upper half volume of plasma supernatant, quick frozen and stored at −80° C. The absence of platelet and leucocyte in PPP was checked with an ADVIA 120 counter (Bayer Diagnostics, NY, USA).
Recombinant human tissue factor Innovin® was obtained from Dade Behring (Marburg, Germany) and used at a final concentration of 0.5 pM in PRP and 1 or 5 pM in PPP samples. The phospholipid vesicles used at a final concentration of […] were obtained from Avanti Polar Lipids (Alabaster, Ala., USA) and consisted of 20 mol % phosphatidylserine (PS), 20 mol % phosphatidylethanolamine (PE) and 60 mol % phosphatidylcholine (PC) and were prepared by extrusion method (9,10). Kaolin light (hydrated aluminium silicate) was obtained from Baker Harrison ltd, (Ilford, UK).
Hepes-buffered saline contained 20 mM Hepes (Sigma Aldrich, l'Ile d'Abeau Chesnes, France), 140 mM NaCl and 5 mg/mL bovine serum albumin (BSA) (Euromedex, Souffelweyersheim, France), pH 7.35. This buffer was stored at −20° C. until use. A fresh mixture of fluorogenic substrate and CaCl2 was prepared before each experiment. Fluorogenic substrate, Z-Gly-Gly-Arg-AMC, was obtained from Bachem (Bubendorf, Switzerland). The mixture of fluorogenic substrate 2.5 mM and CaCl2 0.1 M was prepared using buffer containing Hepes 20 mM and 60 mg/mL BSA, pH 7.35. The Calibrator with the activity of 600 nM human thrombin was obtained from Thrombinoscope BV (Maastricht, The Netherlands). Transparent, round bottom Greiner microtiter plates (Greiner ref 65204, Poitiers, France) were used.
Thrombin generation was measured using Calibrated Automated Thrombography (CAT) according to the methodology of WO2003/093831 and a 96-well plate fluorometer (Fluoroscan Ascent Reader, Thermolab systems OY, Helsinki, Finland) equipped with a 390/460 nm filter set. Briefly, 80 μL of plasma is dispensed into the wells of round-bottom 96 well-microtiter plates. 20 μL of a mixture containing tissue factor and phospholipids is added to the PPP sample; alternatively, in order to obtain contact activation, the citrated plasma is preincubated for at least 10 min with 1 mg/ml of Kaolin light. The starting reagent (20 μL per well) contains fluorogenic substrate and CaCl2. […] The most important parameters that can be derived from CAT are lag time, endogenous thrombin potential corresponding to the area under the CAT curve, peak height of thrombin and time to peak.

h-FXIIa = molecular target: T1, h-FXIIa (Homo sapiens, UniProt P00748); assay: Stability of CTI, PTI and TICA at RT and at 95° C., read as inhibition of h-FXIIa; format: physicochemical; conditions: for Residual activity / Calculated total I / Activity of FXIIa / Free FXIIa: inhibitor exposed 60 minutes to 95° C.; for Calculated total I / Activity of FXIIa / Free FXIIa: added CTI 8.1 nM, TICA1 306 nM; for Activity of FXIIa / Free FXIIa: total FXIIa 9.33 nM
T1 construct: purchased Enzyme Research Laboratories FXIIa 1212A
T1 sequence (P00748 373-615 limits assumed): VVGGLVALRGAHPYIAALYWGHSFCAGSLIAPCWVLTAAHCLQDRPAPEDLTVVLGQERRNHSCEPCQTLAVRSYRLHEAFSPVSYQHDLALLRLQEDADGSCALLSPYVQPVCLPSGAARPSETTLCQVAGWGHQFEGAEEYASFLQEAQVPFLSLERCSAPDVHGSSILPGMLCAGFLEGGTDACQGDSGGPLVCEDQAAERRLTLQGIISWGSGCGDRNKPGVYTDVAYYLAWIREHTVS
T1 sequence (P00748 20-372 partner limits assumed): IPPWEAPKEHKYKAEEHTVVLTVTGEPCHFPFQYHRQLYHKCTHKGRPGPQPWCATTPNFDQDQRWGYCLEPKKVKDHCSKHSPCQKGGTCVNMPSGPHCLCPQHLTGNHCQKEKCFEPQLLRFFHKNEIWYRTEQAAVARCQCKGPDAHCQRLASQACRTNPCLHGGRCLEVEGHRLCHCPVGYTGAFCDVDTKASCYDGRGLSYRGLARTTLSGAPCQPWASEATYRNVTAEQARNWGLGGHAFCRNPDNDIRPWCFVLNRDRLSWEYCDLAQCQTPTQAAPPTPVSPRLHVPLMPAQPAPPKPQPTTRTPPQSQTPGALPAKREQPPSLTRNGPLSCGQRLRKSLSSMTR
Description: Materials • S2302 From Chromogenic, lot # N0398718 SEQ0860, exp. date 2012-07. Water added on 7 Oct. […] On 3 Aug. […] Product code FXIIa 1212A, lot #FXIIa 2520PL. Bottle with 0.5 mg was reconstituted with 370 μl pure water. […] Buffer 4 mM NaAc, 150 mM NaCl (pH 5.3). Preparation was divided into 20 μl amounts and frozen at −80° C. • Hepes735 140 mM NaCl, 20 mM Hepes, 0.02% NaN3 (pH 7.35). • BSA5 Hepes735+5 mg/ml BSA. • CTI Prepared on 17 Dec. 2004, 0.141 mg/ml, i.e. 0.141/12028=11.7*10^−6 M (11.7 μM). One portion was thawed and divided into 3 parts. […]
Stock FXIIa was diluted 700× in BSA5. The inhibitor was diluted in BSA5 as indicated. Wells contained 70 μl diluted FXIIa (5 nM final), 70 μl inhibitor and 20 μl S2302 (475 or 462.5 μM final). The reaction was started after 5 min heating on the heating plate with S2302. Filters 405 nm and 490 nm reference. Found ΔmA/min was multiplied by 2.14 to get the figure for a 1 cm path.
The residual activity (V) was fitted against the inhibitor concentration with equation:
V=(E+(sqrt(Ê2+2*E*(Ki−I)+Î2+2*I*Ki+Kî2)−E−I−Ki)/2)*kcat*S/(Km+S)
in which E=[FXIIa], Ki is the dissociation constant, I=[Inhibitor], kcat and Km are Michaelis constants and S=[S2302].
To calculate the concentration of I the equation I=x·(x−E−Ki)/(x−E) was used. In this equation is I the calculated inhibitor concentration, x=the residual activity of FXIIa (free FXIIa), E the total FXIIa concentration (=9.33 nM), and Ki the dissociation or inhibitor constant.

[1] = Retention of biological activity at room temperature and in boiling water; format: physicochemical; conditions: for biological activity after heating: 0.1 mM solution in closed ampoule in boiling water for 60 min
Description: (Example 7) This means that, unlike CTI, it can be added to citrate tubes that can be sterilized and used under clinical conditions. About 0.10 mg of TICA1 would be required per vacuum tube meant to take 10 ml of blood.

[2] = contact activation of PPP by kaolin
[3] = Kaolin, CTI 0.72 μM (8.64 μg/ml)

Molecule: CC[C@H](C)[C@@H]1NC(=O)[C@H](CCCNC(=N)N)NC(=O)[C@@H]2CCCN2C(=O)[C@@H](NC(=O)[C@@H](NC(=O)[C@@H](N)CCCNC(=N)N)C(C)C)CSSC[C@@H]2NC(=O)[C@H](CCC(=O)O)NC(=O)[C@H](C)NC(=O)[C@H](CC(C)C)NC(=O)[C@@H]3CSSC[C@@H](C(=O)NCC(=O)O)NC(=O)[C@H](Cc4ccc(O)cc4)NC(=O)CNC(=O)[C@H](Cc4c[nH]cn4)NC(=O)[C@H](CCC(=O)O)NC(=O)[C@H](CC(C)C)NC(=O)[C@H](CSSC[C@H](NC(=O)[C@H](CCCCN)NC(=O)[C@H](CCSC)NC(=O)[C@H](CC(C)C)NC1=O)C(=O)N[C@@H](CCCCN)C(=O)N[C@@H](CCCCN)C(=O)N[C@@H](CC(=O)O)C(=O)N[C@@H](CO)C(=O)N[C@@H](CC(=O)O)C(=O)N3)NC(=O)[C@H](C(C)C)NC2=O [TICA1]
- effect on lag time of thrombin generation triggered by contact activation (contact activation; FIG. 1): prolong the lag time
- inhibition of contact activation of PPP (contact activation; PPP incubated with kaolin, 0.94 to 4.6 μM): dose-dependent inhibition
- 4 × lag-time (ng/ml) (contact activation; After heating): 7.5 ng/mL
- 4 × lag-time (μM) (contact activation; After heating): 2.3 µM
- 4 × lag-time (ng/ml) (contact activation; Before heating): 7.8 ng/mL
- 4 × lag-time (μM) (contact activation; Before heating): 2.4 µM
- potency compared with CTI on a molar basis (contact activation; [2]): ~2.5 times less potent
- potency compared with CTI on a weight basis (contact activation; [2]): equipotent
- Ki (h-FXIIa; (Ki) (nM), inhibitor 30 min 95° C., h-FXIIa 5.01 nM): 24 nM
- Res. Act. (%) (h-FXIIa; inhibitor 30 min 95° C.): 94%
- Res. Act. (%) (h-FXIIa; inhibitor at RT during 72 hrs): 102%
- Residual activity (h-FXIIa): 81.7%
- Calculated total I (h-FXIIa): 250 nM
- Activity of FXIIa (h-FXIIa): 33.5 ± 1.78 mA/min
- Free FXIIa (h-FXIIa): 3.93 nM
- Res. Act. (%) (h-FXIIa; inhibitor kept at −80° C.): 100%
- biological activity after heating [1]: does not affect its biological activity
- stability at room temperature ([1]; left for weeks at room temperature): without loosing activity

- Activity of FXIIa (h-FXIIa): 66.3 ± 1.32 mA/min
- Free FXIIa (h-FXIIa): 7.77 nM
B1: Corn trypsin inhibitor (other, UniProt P01088 29-138, looked up)
chain: SAGTSCVPGWAIPHNPLPSCRWYVTSRTCGIGPRLPWPELKRRCCRELADIPAYCRCTALSILMDGAIPPGPDAQLEGRLEDLPGCPREVQRGFAATLVTEAECNLATIS
notes: also called CTI
- ETP (contact activation; [3]): 1116
- Lag-time (contact activation; [3]): 18.62
- Peak (contact activation; [3]): 385
- ttPeak (contact activation; [3]): 20.06
- Residual activity (h-FXIIa): 29.3%
- Calculated total I (h-FXIIa): 2.37 nM
- biological activity after heating [1]: significantly inactivated

From patent US20140296146A1, “Thermostable Inhibitors of Activation of the Blood Clotting System Through Contact with Foreign Surfaces” (Synapse B.V., priority 2011, published 2014)
